Experimental data published in patent US9555038B2, “Heterocycle-substituted tetracyclic compounds and methods of use thereof for the treatment of viral diseases” (Merck Sharp & Dohme Corp., priority 2013, dated 2017).
Read-outs that look alike come from different tables or passages of the source.

Legend:
[1] = system: HCV replicon 1A; assay: Cell-based HCV Replicon Assay A, replicon 1A
How it was run: (§1)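 Replicon cells were seeded at 2000 cells/well with test compound in 10 serial dilutions, starting at 333.3 nM to 1.667 nM, in 0.5% DMSO and 5% FBS. On day 3, cells were washed and lysed, and replicon RNA was quantified by multiplex TaqMan RT-PCR normalised to cyclophilin.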

[2] = system: HCV replicon 1AY93H; assay: Cell-based HCV Replicon Assay A, replicon 1AY93H
How it was run: as §1

[3] = system: HCV replicon 2B; assay: Cell-based HCV Replicon Assay A, replicon 2B
How it was run: as §1

[4] = system: HCV replicon 1AQ30D; assay: Cell-based HCV Replicon Assay B, replicon 1AQ30D
How it was run: (§2)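 Replicon cells seeded in 5% FBS; compounds added 24 h later, then 3 days' incubation. Replicon RNA quantified by real-time RT-PCR with genotype-specific primers/probes (NS5B amplicon for 1b). EC50 = concentration raising CT by 1 over projected baseline.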

[5] = system: HCV replicon 1B; assay: Cell-based HCV Replicon Assay B, replicon 1B
How it was run: as §2

[6] = read-out: 1A Y93H IC50, replicon 1AY93H
[7] = Hepatitis C virus, read-out: 1A Q30D IC50 (nM), replicon 1AQ30D
[8] = read-out: 1A Q30D IC50, replicon 1AQ30D
[9] = replicon 1AY93H, read-out: 1A Y93H IC50
[10] = replicon 1AQ30D, read-out: 1A Q30D IC50

Compound | IC50 [1] [pM] | IC50 [2, 6] [nM] | IC50 ([3]; read-out: 2B IC50, replicon 2B) [nM] | IC50 [4, 7] [nM] | IC50 ([5]; Hepatitis C virus) [pM] | IC50 [4, 8] [nM] | IC50 [5] [pM] | IC50 ([1]; Hepatitis C virus) [pM] | IC50 [2, 9] [nM] | IC50 ([3]; replicon 2B, read-out: 2B IC50) [nM] | IC50 [4, 10] [nM] | IC50 ([2]; Hepatitis C virus, read-out: 1A Y93H IC50 (nM), replicon 1AY93H) [nM] | IC50 ([3]; Hepatitis C virus, read-out: 2B IC50 (nM), replicon 2B) [nM]
COC(=O)NC(C(=O)N1CCC[C@H]1c1ncc(-c2ccc3c(c2)cc2n3C(c3cnc(C4CC4)s3)Oc3cc(-c4cnc([C@@H]5CCCN5C(=O)[C@@H](NC(=O)OC)C(C)C)[nH]4)cc(F)c3-2)[nH]1)C1C[C@@H](C)O[C@@H](C)C1 (single isomer, unassigned) [Compound 307] | 4.2 | 0.0083 | 0.006 | 0.047 | 5 |  |  |  |  |  |  |  | 
COC(=O)NC(C(=O)N1CCC[C@H]1c1ncc(-c2ccc3c(c2)cc2n3C(c3cnc(C4CC4)s3)Oc3cc(-c4cnc([C@@H]5CCCN5C(=O)[C@@H](NC(=O)OC)C(C)C)[nH]4)cc(F)c3-2)[nH]1)C1CCOC(C)(C)C1 (single isomer, unassigned) [Compound 308] | 4.1 | 0.0757 | 0.047 |  | 3 | 0.496 |  |  |  |  |  |  | 
COC(=O)NC(C(=O)N1CCC[C@H]1c1ncc(-c2ccc3c(c2)cc2n3C(c3cnc(C4CC4)s3)Oc3cc(-c4cnc([C@@H]5CCCN5C(=O)[C@@H](NC(=O)OC)C(C)C)[nH]4)cc(F)c3-2)[nH]1)C1CCOC(C)(C)C1 (single isomer, unassigned) [Compound 309] | 1.8 | 0.0218 | 0.003 |  |  | 0.047 | 6 |  |  |  |  |  | 
COC(=O)NC(C(=O)N1[C@@H]2C[C@@H]2C[C@H]1c1ncc(-c2ccc3c(c2)cc2n3C(c3cnc(C4CC4)s3)Oc3cc(-c4cnc([C@@H]5CCCN5C(=O)[C@@H](NC(=O)OC)C(C)C)[nH]4)cc(F)c3-2)[nH]1)C1C[C@@H](C)O[C@@H](C)C1 (single isomer, unassigned) [Compound 310] |  | 0.0954 | 0.12 |  | 3 | 0.806 |  | 2.6 |  |  |  |  | 
COC(=O)NC(C(=O)N1[C@@H]2C[C@@H]2C[C@H]1c1ncc(-c2ccc3c(c2)cc2n3C(c3cnc(C4CC4)s3)Oc3cc(-c4cnc([C@@H]5CCCN5C(=O)[C@@H](NC(=O)OC)C(C)C)[nH]4)cc(F)c3-2)[nH]1)C1C[C@@H](C)O[C@@H](C)C1 (single isomer, unassigned) [Compound 311] | 2 | 0.0019 | 0.003 |  |  | 0.011 | 2 |  |  |  |  |  | 
COC(=O)NC(C(=O)N1CCCC1c1ncc(-c2cc(F)c3c(c2)OC(c2cnc(C4CCCC4)s2)n2c-3cc3cc(-c4cnc(C5CC6CC6N5C(=O)C(NC(=O)OC)C(C)C)[nH]4)ccc32)[nH]1)C(C)C (single isomer, unassigned) [Compound 319] | 2.5 |  |  |  |  |  | 3 |  | 0.0029 | 0.017 | 0.051 |  | 
COC(=O)NC(C(=O)N1CCCC1c1ncc(-c2cc(F)c3c(c2)OC(c2cnc(C4CCCC4)s2)n2c-3cc3cc(-c4cnc(C5CC6CC6N5C(=O)C(NC(=O)OC)C(C)C)[nH]4)ccc32)[nH]1)C(C)C (single isomer, unassigned) [Compound 320] | 1.7 |  |  |  |  |  | 3 |  | 0.036 | 0.203 | 0.59 |  | 
COC(=O)NC(C(=O)N1[C@@H]2C[C@@H]2C[C@H]1c1ncc(-c2ccc3c(c2)cc2n3C(c3cnc(C4CCCC4)s3)Oc3cc(-c4cnc([C@@H]5CCCN5C(=O)[C@@H](NC(=O)OC)C(C)C)[nH]4)cc(F)c3-2)[nH]1)C1CCOC(C)(C)C1 (single isomer, unassigned) [Compound 321] |  | 0.0019 | 0.004 |  | 3 | 0.007 |  | 2.9 |  |  |  |  | 
COC(=O)NC(C(=O)N1[C@@H]2C[C@@H]2C[C@H]1c1ncc(-c2ccc3c(c2)cc2n3C(c3cnc(C4CCCC4)s3)Oc3cc(-c4cnc([C@@H]5CCCN5C(=O)[C@@H](NC(=O)OC)C(C)C)[nH]4)cc(F)c3-2)[nH]1)C1CCOC(C)(C)C1 (single isomer, unassigned) [Compound 322] | 2.7 | 0.0512 | 0.058 |  |  | 0.324 | 4 |  |  |  |  |  | 
COC(=O)N[C@H](C(=O)N1CCC[C@H]1c1ncc(-c2cc(F)c3c(c2)OC(c2cnc(-c4ccncc4)s2)n2c-3cc3cc(-c4cnc([C@@H]5CCCN5C(=O)[C@@H](NC(=O)OC)C(C)C)[nH]4)ccc32)[nH]1)C(C)C (single isomer, unassigned) [Compound 409] |  |  |  | 5.1 | 7 |  |  | 10.8 |  |  |  | 0.577 | 1.28
COC(=O)NC(C(=O)N1[C@@H]2C[C@@H]2C[C@H]1c1ncc(-c2ccc3c(c2)cc2n3C(c3cnc(CC(C)C)s3)Oc3cc(-c4cnc([C@@H]5CCCN5C(=O)[C@@H](NC(=O)OC)C(C)C)[nH]4)cc(F)c3-2)[nH]1)C1CCOC(C)(C)C1 (single isomer, unassigned) [Compound 437] | 2.2 |  |  |  |  |  | 3.1 |  | 0.176 | 0.21 | 0.283 |  | 
